From patent publication EP2118137B1, “PEPTIDES AND POLYPEPTIDES WITH IMPROVED STABILITY USEFUL IN THE REGENERATION OF THE NERVOUS SYSTEM” (Neuronax, priority 2006, dated 2011)
“Also recorded” adds a separate entry of the source. Square brackets hold non-standard residues; d marks the D form. Peptide text beside a SMILES is read from it. 2Nal = N[C@@H](Cc1ccc2ccccc2c1)C(=O)O; Lys(iPr) = CC(C)NCCCC[C@H](N)C(=O)O; Abu = CC[C@H](N)C(=O)O

Key:
[1] = test system: cellules de la lignée B104; assay: Morphological differentiation and neurite outgrowth of B104 cells; type: cell-based, rat
Excerpt: L'activité biologique des différents peptides a été analysée par ajout de chacun des peptides dans des cultures de cellules nerveuses et suivi des modifications morphologiques de ces cellules.
Des cellules de la lignée B104, issues de neuroblastome de rat, sont cultivées à raison de 1000 cellules par puits dans des plaques de 48 puits préalablement recouverts de poly-lysine (fourni par Sigma-Aldrich), dans du milieu de Eagle modifié par Dubelco (DMEM), supplémenté de glutamine et d'antibiotique, et additionné de 10% de sérum de veau foetal pendant la phase d'adhésion. Le milieu est ensuite remplacé par un nouveau milieu DMEM ne contenant pas de sérum et permettant la différenciation des cellules. Après traitement, c'est-à-dire après ajout du composé à tester, les cellules sont maintenues en culture à 37°C sous une atmosphère à 10% de CO2. L'évolution de la morphologie cellulaire et la prolifération sont suivies par examen microscopique en contraste de phase chaque jour sur la période de culture. La différenciation cellulaire, et en particulier l'effet sur la pousse neuritique, est alors mesurée.

[2] = Stability of peptides in aqueous solution (HPLC purity on storage); type: physicochemical; conditions: 22°C, 50% relative humidity, HPLC after 0, 3, 7, 11 and 22 days
Protocol: Les peptides synthétiques ont été mis en solution aqueuse (1,5 mg de peptide dissout dans 1000 µL d'eau stérile).
Leur pureté a été testée par HPLC, elle était d'au moins 97,0%.
Ces solutions ont ensuite été diluées : à 0,4 mL de chacune de ces solutions, on a ajouté 1,1 mL d'eau purifiée.
Ces solutions ont été placées en étuve à 22°C et 50% d'humidité relative, et analysées après : 0, 3, 7, 11 et 22 jours.
L'analyse a été faite par HPLC en gradient de phase inverse à une concentration de 0,4 mg/mL, avec les paramètres suivants : - cartouche Symétrie RP18 (Waters) 125 x 4,6 mm - phases mobiles A : H2O + TFA 0.1 % (w/v) B : Acétonitrile + TFA 0.1 % (v/v) - détection : 210 nm - débit : 1 ml/min - volume d'injection : 20 µl de solution (soit 8 µg de peptide) - gradient : […]
Les échantillons ont été placés en étuve à 22 °C, 50 % d'humidité relative et analysés à : 0 jours, 3 jours, 7 jours, 11 jours et 22 jours.
Les résultats sont présentés dans le Tableau 1 et sur la Figuré 1.
Le paramètre « TR » exprime le temps de rétention du peptide en minutes dans la colonne de HPLC.
Le paramètre « Pureté » exprimé la pureté du peptide en % tel que déterminé par HPLC.
La colonne « Impuretés : TR est % » indique pour le pic supplémentaire le plus intense, le temps de rétention en minutes et le pourcentage en masse. La colonne SEQ indique le numéro de la séquence (SEQ ID N° X).

[3] = test system: souris avec lésion ischémique partielle; assay: Mouse partial ischemic spinal cord lesion, functional evaluation of walking; type: in vivo; conditions: partial ischemic lesion causing paralysis
Excerpt: Une première caractérisation in vivo des phénomènes de repousse neuritique et de survie neuronale a été effectuée sur deux modèles d'animaux différents dans le cas du trauma de la moelle épinière (réparation de la moelle épinière après rupture).

cellules B104 = conditions: cited from earlier work
cellules nerveuses = conditions: added daily to the culture medium at its optimal dose; cited from earlier work

CC[C@H](NC(=O)[C@H](CO)NC(=O)[C@H](CO)NC(=O)[C@H](Cc1c[nH]c2ccccc12)NC(=O)CNC(=O)[C@H](CO)NC(=O)[C@@H](N)Cc1c[nH]c2ccccc12)C(=O)N[C@@H](CO)C(=O)N[C@@H](CCCNC(=N)N)C(=O)N[C@@H](CO)C(N)=O [NH2-W-S-G-W-S-S-Abu-S-R-S-NH2] (H-WSGWSS[Abu]SRS-NH2)
induction de la pousse neuritique ([1]; B104 cells): s'est montré actif

CC[C@H](NC(=O)[C@H](CO)NC(=O)[C@H](CO)NC(=O)[C@H](Cc1c[nH]c2ccccc12)NC(=O)CNC(=O)[C@H](CO)NC(=O)[C@@H](N)Cc1c[nH]c2ccccc12)C(=O)N[C@@H](CO)C(=O)N[C@@H](CCCNC(=N)N)C(=O)N[C@@H](CO)C(=O)O [SEQ ID N°4, W-S-G-W-S-S-Abu-S-R-S] (H-WSGWSS[Abu]SRS-OH)
stabilité en solution aqueuse [2]: stabilité en solution améliorée

CC[C@H](NC(=O)[C@H](CCCNC(=N)N)NC(=O)[C@H](CO)NC(=O)[C@H](CS)NC(=O)[C@H](CO)NC(=O)[C@H](CO)NC(=O)[C@H](Cc1c[nH]c2ccccc12)NC(=O)CNC(=O)[C@H](CO)NC(=O)[C@@H](N)Cc1c[nH]c2ccccc12)C(=O)O [SEQ ID N°5, W-S-G-W-S-S-C-S-R-Abu] (H-WSGWSSCSR[Abu]-OH)
stabilité en solution aqueuse [2]: stabilité en solution améliorée

CC(C)NCCCC[C@H](NC(=O)[C@H](CO)NC(=O)[C@H](CS)NC(=O)[C@H](CO)NC(=O)[C@H](CO)NC(=O)[C@H](Cc1c[nH]c2ccccc12)NC(=O)CNC(=O)[C@H](CO)NC(=O)[C@@H](N)Cc1c[nH]c2ccccc12)C(=O)N[C@@H](CO)C(=O)O [SEQ ID N°6, W-S-G-W-S-S-C-S-K-(iPr)-S] (H-WSGWSSCS[Lys(iPr)]S-OH)
stabilité en solution aqueuse [2]: stabilité en solution améliorée

CC[C@H](NC(=O)[C@@H](N)Cc1c[nH]c2ccccc12)C(=O)NCC(=O)N[C@@H](Cc1c[nH]c2ccccc12)C(=O)N[C@@H](CO)C(=O)N[C@@H](CO)C(=O)N[C@@H](CS)C(=O)N[C@@H](CO)C(=O)N[C@@H](CCCNC(=N)N)C(=O)N[C@@H](CO)C(=O)O [SEQ ID N°7, W-Abu-G-W-S-S-C-S-R-S] (H-W[Abu]GWSSCSRS-OH)
stabilité en solution aqueuse [2]: stabilité en solution améliorée

N=C(N)NCCC[C@H](NC(=O)[C@H](CO)NC(=O)[C@H](CS)NC(=O)[C@H](CO)NC(=O)[C@H](CO)NC(=O)[C@H](Cc1c[nH]c2ccccc12)NC(=O)CNC(=O)[C@H](CO)NC(=O)[C@@H](N)Cc1ccc2ccccc2c1)C(=O)N[C@@H](CO)C(=O)O [SEQ ID N°8, L-Nal2-S-G-W-S-S-C-S-R-S] (H-[2Nal]SGWSSCSRS-OH)
stabilité en solution aqueuse [2]: stabilité en solution améliorée

W-S-G-W-S-S-C-S-R-S-C-G (WSGWSSCSRSCG) [SEQ ID N°1, séquence la plus représentative d'un motif TSR de la SCO-spondine]
activité régénératrice (évaluation fonctionnelle au niveau de la marche) [3]: activité régénératrice | stabilité en solution aqueuse [2]: se dégrade plus vite; also recorded: diminue en solution aqueuse avec le temps | réponse des cellules B 104 (effet dose-réponse) [1]: proportionnelle à la concentration de peptide | étalement du corps cellulaire ([1]; 24 hours after adding the peptides): cet effet est présent | incidence du remplacement de l'extrémité carboxyterminale par une extrémité aminée sur l'effet du peptide ([1]; B104 cells): aucune incidence | nombre de neurites par cellule ([1]; after 3 days of culture): effet inducteur de la pousse neuritique | pousses neuritiques ([1]; after 3 days of culture): pousses neuritiques importantes | pousses neuritiques (cellules B104; after three days of culture, without serum): pousses neuritiques importantes | différenciation cellulaire (cellules B104): induit la pousse neuritique et l'agrégation cellulaire | nombre de neurites (cellules B104): induit une augmentation | taille du neurite le plus long (cellules B104): induit une augmentation | regroupements cellulaires (agrégation) (cellules B104; from 3 or 4 days of culture): apparition de regroupements de ces cellules B 104 différenciées | effet sur la pousse neuritique (dose) (cellules B104; increasing range of peptide concentrations): dépendant de la dose de peptide utilisée | effet du peptide avec ajout quotidien (cellules nerveuses): l'effet observé était accentué
